Type in all cases: in vivo
In data set [1] the test system is ovariectomized mice. The data set can be described thus: Gastrointestinal homeostasis and blood coagulation in ovariectomized mice. As to conditions: OVX mice, 6 weeks.
The test system of another data set is peripheral serotonin. The data set can be described thus: Peripheral serotonin levels in wild-type mice (Example 11). The note with it: 5 mice per compound. How it is done:
Serotonin serum levels were quantified using immunoassay kits from Fitzgerald (Serotonin) and serotonin levels in the different regions of the brain were quantified by HPLC method as described previously (Mann et al., 1992, Arch. Gen. Psychiatry 49:442-446).
The following three compounds were tested for their ability to effect peripheral serotonin levels in wild-type mice:
Also tested as a negative control was vehicle alone. Each compound as well as vehicle was administered to 5 mice and the resulting peripheral serotonin levels were as follows: […]

For another data set, the system named is serum serotonin. In words: Serum serotonin levels in WT mice fed LP-533,401 (dose response). The procedure:
This decrease in serum serotonin levels reached 70% of control values when using 250 mg/kg of the compound while no change in brain serotonin content was observed (FIG. 15). […] Ovariectomized rodents present, as post-menopausal women do (Rodan & Martin, 2000, Science 289:1508-1514), a marked increase in bone resorption not compensated by a similar increase in bone formation.
(§1) Blood samples were collected from mice and rats through cardiac puncture under isoflurane anesthesia, kept on ice for 5 min, and centrifuged at 13,000 rpm for 10 min at 4° C. Serum samples were stored at −80° C. until hormonal analyses were performed. Serum serotonin levels were quantified by ELISA (Serotonin kit, Fitzgerald) while serotonin levels in brain regions were quantified by HPLC as described previously (Mann et al., 1992, Arch. Gen. Psychiatry 49:442-446). Serum levels of total deoxypyridinoline (DPD) cross-links was measured using the Merta tDPD kit (Quidel corp. Sandiago, Calif.) and Osteocalcin using Rat and Mouse Ocn IRMA kit.

For data set [2], the system named is ovariectomized mice. The data set can be described thus: Bone histomorphometry in ovariectomized mice, preventive and curative regimen. The procedure:
Six-week-old wild-type virgin female mice were purchased from the Jackson Laboratories and subjected to either bilateral ovariectomy or a sham operation after a few days of acclimatization to the animal facility post-arrival. Ovariectomy was performed under isofluorane anesthesia through dorsal, subrenal incision. In the first experiment, mice were treated from day 1 post-ovariectomy for 4 weeks with LP-533,401 (1, 10, 100 or 250 mg/kg/day) or vehicle. In the second experiment, mice were treated for 4 weeks from 2 to 6-weeks post-ovariectomy with LP-533,401 (250 mg/kg/day) or vehicle. […] LP-533,401 was dissolved in polyethylene glycol:5% dextrose (40:60) and given daily by gavage at the doses indicated. Animals were observed daily for any behavioral abnormalities. Mice were sacrificed at the end of the experimental regimen and processed for the skeletal and physiological analysis.
Bone histomorphometry was performed as previously described (Duey et al., 2000, Cell 100:197-207; Takeda et al., 2002, Cell 111:305-317; Parfitt et al., 1987, J. Bone Miner. Res. 2:595-610). Briefly, lumbar vertebrae were dissected, fixed for 24 hr in 10% formalin, dehydrated in graded ethanol series, and embedded in methyl methacrylate resin according to standard protocols (Parfitt et al., 1987, J. Bone Miner. Res. 2:595-610). Von Kossa/Von Gieson staining was performed using 7 μm sections for bone volume over tissue volume (BV/TV) measurement. Bone formation rate (BFR) was analyzed by the calcein double-labeling method (Ducy et al., 2000, Cell 100:197-207). Calcein (Sigma Chemical Co., St. Louis, Mo.) was dissolved in calcein buffer (0.15 M NaCl, 2% NaHCO3) and injected twice at 0.125 mg/g body weight on day 1 and 4, and then mice were killed on day 6. Unstained 4 μm sections were used for bone formation rate (BFR) measurements. For the analysis of parameters of osteoblasts and osteoclasts, 4 μm sections were stained with toluidine blue and tartrate-resistant acid phosphatase (TRAP), respectively (2). Histomorphometric analyses were performed using the Osteomeasure Analysis System (Osteometrics, Atlanta, Ga.).
as §1

Setting [3] is: OVX mice, 250 mg/kg/day for 4 weeks from week 2 post-ovariectomy.
Setting [4] is: OVX mice, day 1 to 28 post-ovariectomy.

Regarding `Nc1nc(OC(c2ccc(-c3cccc(F)c3)cc2)C(F)(F)F)cc(-c2ccc(C[C@H](N)C(=O)O)cc2)n1` (stereo partly drawn) [LP-533401, (2S)-2-amino-3-(4-(2-amino-6-(2,2,2-trifluoro-1-(3′-fluorobiphenyl-4-yl)ethoxy)pyrimidin-4-yl)phenyl)propanoic acid], in the data set with ovariectomized mice [1], the “coagulation rates versus vehicle” value is “similar”. Also, in the data set with ovariectomized mice [1] (up to 250 mg/kg/day), the colonic mobility result is on record as “None of these parameters were affected”, the gastric emptying entry is reported as “None of these parameters were affected” and the total gastrointestinal transit entry is given as “None of these parameters were affected”. The “Peripheral serotonin (ng/ml) (mean ± SEM)” value with peripheral serotonin came to 88.56 ± 12.93 ng/mL. Also, in the data set with serum serotonin (WT mice fed with increasing amounts), the “serum serotonin levels, dose response” value is recorded as “dose-dependent decrease”. The “decrease in serum serotonin levels” value in the data set with serum serotonin (WT mice, 250 mg/kg LP-533,401) is 70 % of control values. The “bone mass versus sham-operated mice” value in the data set with ovariectomized mice [2] (OVX mice, 25 mg/kg/day for 6 weeks from week 6 post-ovariectomy) was “similar”. Further, in the data set with ovariectomized mice [2] (setting [3]), the bone mass entry was “normalized” and the bone resorption parameters entry is listed as “increased”. The “bone mass versus sham-operated mice” value in the data set with ovariectomized mice [2] (OVX mice, 100 or 250 mg/kg/day for 6 weeks from week 6 post-ovariectomy) is listed as “significantly higher”. In addition, the “bone mass versus vehicle-treated ovariectomized mice” value in the data set with ovariectomized mice [2] (OVX mice, 250, 100 or 10 mg/kg once daily, day 1 to 28 post-ovariectomy) is listed as “higher”. In the data set on ovariectomized mice [2] (setting [4]), the “Cyclin D1 expression in the bones” value is reported as “increase”, the bone formation rate entry is “major increase”, the osteoblast numbers result was “major increase” and the osteocalcin serum levels result is listed as “major increase”.

(Values after US8614222B2, “Methods of preventing and treating low bone mass diseases” (The Trustees of Columbia University in the City of New York, priority 2008, dated 2013).)
